This note sets out measurements from patent US20230002374A1, “GPR52 MODULATOR COMPOUNDS” (Heptares Therapeutics Limited, priority 2019, published 2023).

Each structure is given as a SMILES string. pEC50: −log10 of the molar value. Read-outs that look alike come from different tables or passages of the source.

The experiment concerns the target human GPR52 (Homo sapiens, UniProt Q9Y2T5). In words: GPR52 Agonist Functional cAMP Assay.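 As to all read-outs here: HEKf cells transduced with GPR52 BacMam for 24 h, 2000 per well, exposed to compounds 30 min at 37° C with 0.5 mM IBMX, cAMP read by HTRF.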 The following applies: for pEC50: pEC50 average, HEKf cells infected with human GPR52 BacMam virus, cAMP HTRF, 30 min at 37° C. (In general: TR-FRET usually uses a lanthanide donor and a delayed reading to cut background.)
The mark [1] stands for this setting: maximal response normalised to DMSO (0%) and maximal compound 7m (J. Med. Chem., 2014, 57, 5226) response (100%).

As a reminder, the Emax is the maximal effect, on the per cent scale that the assay sets. The pEC50 is the negative decadic logarithm of the EC50, by convention in mol/L. High values mean a low EC50, low ones a high EC50.

Sequence of human GPR52 (Q9Y2T5 whole entry): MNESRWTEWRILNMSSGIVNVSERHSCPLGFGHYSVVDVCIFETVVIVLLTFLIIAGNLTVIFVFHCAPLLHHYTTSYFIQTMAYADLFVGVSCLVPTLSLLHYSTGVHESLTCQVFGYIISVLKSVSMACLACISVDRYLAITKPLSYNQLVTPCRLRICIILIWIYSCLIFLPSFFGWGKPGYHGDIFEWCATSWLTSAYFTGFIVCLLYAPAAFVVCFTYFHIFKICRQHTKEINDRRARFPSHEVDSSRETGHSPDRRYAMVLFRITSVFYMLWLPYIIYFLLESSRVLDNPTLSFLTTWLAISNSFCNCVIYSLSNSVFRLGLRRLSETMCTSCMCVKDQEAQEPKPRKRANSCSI
Description: Following BacMam infection, cells were pelleted by centrifugation (335 g, 5 min), resuspended in cell freezing medium (Sigma) and frozen at −150° C. until required. On experiment day, 25 nL GPR52 compound dilutions, prepared in DMSO, were stamped onto proxiplates (PerkinElmer) by a LabCyte ECHO acoustic dispenser. Frozen cells were thawed and resuspended in assay stimulation buffer (Cisbio) containing 0.5 mM 3-iso-butyl-1-methylxanthine (IBMX, Sigma) to achieve a density of 2000 cells per well. 10 μl cells were added to assay plates using a Multidrop Combi Reagent Dispenser (ThermoFisher) before centrifugation (335 g, 1 min). Cells were incubated with compounds at 37° C. for 30 min prior to addition of cAMP detection reagents (HiRange cAMP kit, Cisbio) which were prepared according to the manufacturer's instructions. Plates were shaken for 1 h at room temperature before reading on a PHERAstar FS plate reader (BMG Labtech) using standard HTRF settings.

In the case of `CC(C)c1cc(F)cc(Cc2cc(-n3ncc4c3CCNC4=O)ccn2)c1` [Example 71, 1-(2-(3-fluoro-5-isopropylbenzyl)pyridin-4-yl)-1,5,6,7-tetrahydro-4H-pyrazolo[4,3-c]pyridin-4-one], the pEC50 was 7.70. This compound also yielded an Emax under setting [1] of 91%.
In turn, `COc1ncc(Cc2cc(-n3ncc4c3CCNC4=O)ccn2)cc1F` [Example 72, 1-(2-((5-fluoro-6-methoxypyridin-3-yl)methyl)pyridin-4-yl)-1,5,6,7-tetrahydro-4H-pyrazolo[4,3-c]pyridin-4-one] gave a pEC50 of 5.90. In addition, the Emax under setting [1] was found to be 83%.
On the same counts, the results for `O=C1NCCc2c1cnn2-c1ccnc(Cc2cc(Cl)c(F)c(C(F)(F)F)c2)c1` [Example 73, 1-(2-(3-chloro-4-fluoro-5-(trifluoromethyl)benzyl)pyridin-4-yl)-1,5,6,7-tetrahydro-4H-pyrazolo[4,3-c]pyridin-4-one] are 7.30 and 88%.
As for `O=C1NCCc2c1cnn2-c1ccnc(Cc2cc(F)cc(C3(C(F)(F)F)CC3)c2)c1` [Example 74, 1-(2-(3-fluoro-5-(1-(trifluoromethyl)cyclopropyl)benzyl)pyridin-4-yl)-1,5,6,7-tetrahydro-4H-pyrazolo[4,3-c]pyridin-4-one], the pEC50 was 6.30. For the same compound, the Emax under setting [1] amounted to 53%.
In turn, `Cc1cc(Cc2cc(-n3nc(C)c4c3CCNC4=O)ccn2)cnc1F` [Example 76, 1-(2-((6-fluoro-5-methylpyridin-3-yl)methyl)pyridin-4-yl)-3-methyl-1,5,6,7-tetrahydro-4H-pyrazolo[4,3-c]pyridin-4-one] had a negative logarithm of the EC50 (pEC50) of 7.10. Moreover, the Emax under setting [1] turned out to be 94%.
The compound `Cc1nn(-c2ccnc(Cc3cc(F)c(F)c(F)c3)c2)c2c1C(=O)NCC2` [Example 77, 3-methyl-1-(2-(3,4,5-trifluorobenzyl)pyridin-4-yl)-1,5,6,7-tetrahydro-4H-pyrazolo[4,3-c]pyridin-4-one] showed a pEC50 of 7.80. In addition, the Emax under setting [1] is 95%.
`Cc1nn(-c2ccnc(Cc3cccc(C(F)(F)F)c3)c2)c2c1C(=O)NCC2` [Example 78, 3-methyl-1-(2-(3-(trifluoromethyl)benzyl)pyridin-4-yl)-1,5,6,7-tetrahydro-4H-pyrazolo[4,3-c]pyridin-4-one] gave a pEC50 of 7.70. This compound also had an Emax under setting [1] of 94%.
On the same counts, the results for `Cc1nn(-c2ccnc(Cc3cc(F)cc(Cl)c3)c2)c2c1C(=O)NCC2` [Example 79, 1-(2-(3-chloro-5-fluorobenzyl)pyridin-4-yl)-3-methyl-1,5,6,7-tetrahydro-4H-pyrazolo[4,3-c]pyridin-4-one] are 7.90 and 99%.
`Cc1nn(-c2ccnc(Cc3ccc(F)c(Cl)c3)c2)c2c1C(=O)NCC2` [Example 80, 1-(2-(3-chloro-4-fluorobenzyl)pyridin-4-yl)-3-methyl-1,5,6,7-tetrahydro-4H-pyrazolo[4,3-c]pyridin-4-one] had a pEC50 of 8.00. Also, under setting [1], the maximal response (Emax) was 97%.
Compound `Cc1nn(-c2ccnc(Cc3ccc(OC(F)F)c(F)c3)c2)c2c1C(=O)NCC2` [Example 81, 1-(2-(4-(difluoromethoxy)-3-fluorobenzyl)pyridin-4-yl)-3-methyl-1,5,6,7-tetrahydro-4H-pyrazolo[4,3-c]pyridin-4-one] had a pEC50 of 8.00. Also, the Emax under setting [1] came out at 70%.
Take `Cc1cc(Cc2ccnc(-n3nc(C)c4c3CCNC4=O)c2)cnc1F` [Example 83, 1-(4-((6-fluoro-5-methylpyridin-3-yl)methyl)pyridin-2-yl)-3-methyl-1,5,6,7-tetrahydro-4H-pyrazolo[4,3-c]pyridin-4-one]: the pEC50 was 7.60. This compound also registered an Emax under setting [1] of 93%.
`Cc1nn(-c2ccnc(Cc3cc(F)c(F)c(Cl)c3)c2)c2c1C(=O)NCC2` [Example 84, 1-(2-(3-chloro-4,5-difluorobenzyl)pyridin-4-yl)-3-methyl-1,5,6,7-tetrahydro-4H-pyrazolo[4,3-c]pyridin-4-one] gave an Emax of 95% and a pEC50 of 8.60.
For the compound `Cc1nn(-c2ccnc(Cc3cc(F)cc(C#N)c3)c2)c2c1C(=O)NCC2` [Example 85, 3-fluoro-5-((4-(3-methyl-4-oxo-4,5,6,7-tetrahydro-1H-pyrazolo[4,3-c]pyridin-1-yl)pyridin-2-yl)methyl)benzonitrile], the pEC50 was 7.20. Also, the Emax under setting [1] came to 96%.
Compound `Cc1nn(-c2ccnc(Cc3cc(F)c(F)c(C(F)(F)F)c3)c2)c2c1C(=O)NCC2` [Example 86, 1-(2-(3,4-difluoro-5-(trifluoromethyl)benzyl)pyridin-4-yl)-3-methyl-1,5,6,7-tetrahydro-4H-pyrazolo[4,3-c]pyridin-4-one] had a negative-log EC50 (pEC50) of 8.50. The same compound yielded an Emax under setting [1] of 102%.
`Cc1nn(-c2ccnc(Cc3cc(F)c(Cl)c(C(F)(F)F)c3)c2)c2c1C(=O)NCC2` [Example 87, 1-(2-(4-chloro-3-fluoro-5-(trifluoromethyl)benzyl)pyridin-4-yl)-3-methyl-1,5,6,7-tetrahydro-4H-pyrazolo[4,3-c]pyridin-4-one]: the negative-log EC50 (pEC50) was 8.20. The Emax under setting [1] worked out at 95%.
In turn, `Cc1nn(-c2ccnc(Cc3cc(Cl)c(F)c(C(F)(F)F)c3)c2)c2c1C(=O)NCC2` [Example 88, 1-(2-(3-chloro-4-fluoro-5-(trifluoromethyl)benzyl)pyridin-4-yl)-3-methyl-1,5,6,7-tetrahydro-4H-pyrazolo[4,3-c]pyridin-4-one] had a pEC50 of 8.30. Moreover, the Emax under setting [1] is 100%.
The compound `Cc1nn(-c2ccnc(Cc3cc(F)c(Cl)c(F)c3)c2)c2c1C(=O)NCC2` [Example 90, 1-(2-(4-chloro-3,5-difluorobenzyl)pyridin-4-yl)-3-methyl-1,5,6,7-tetrahydro-4H-pyrazolo[4,3-c]pyridin-4-one] had a pEC50 of 7.70. Further, under setting [1], the maximal effect (Emax) was determined as 87%.
Regarding `COc1ccc(Cc2cc(-n3nc(C)c4c3CCNC4=O)ccn2)cn1` [Example 92, 1-(2-((6-methoxypyridin-3-yl)methyl)pyridin-4-yl)-3-methyl-1,5,6,7-tetrahydro-4H-pyrazolo[4,3-c]pyridin-4-one], the negative-log EC50 (pEC50) was 6.20. The Emax under setting [1] came to 74%.
On the same counts, the results for `COc1ncc(Cc2cc(-n3nc(C)c4c3CCNC4=O)ccn2)cc1F` [Example 93, 1-(2-((5-fluoro-6-methoxypyridin-3-yl)methyl)pyridin-4-yl)-3-methyl-1,5,6,7-tetrahydro-4H-pyrazolo[4,3-c]pyridin-4-one] are 7.00 and 83%.
As for `Cc1nn(-c2ccnc(Cc3ccc(OC(F)F)nc3)c2)c2c1C(=O)NCC2` [Example 94, 1-(2-((6-(difluoromethoxy)pyridin-3-yl)methyl)pyridin-4-yl)-3-methyl-1,5,6,7-tetrahydro-4H-pyrazolo[4,3-c]pyridin-4-one], the negative-log EC50 (pEC50) was 6.40. For the same compound, the Emax under setting [1] turned out to be 78%.
As for `Cc1nn(-c2cc(Cc3cc(F)cc(C(F)(F)F)c3)ccn2)c2c1C(=O)NCC2` [Example 95, 1-(4-(3-fluoro-5-(trifluoromethyl)benzyl)pyridin-2-yl)-3-methyl-1,5,6,7-tetrahydro-4H-pyrazolo[4,3-c]pyridin-4-one], the pEC50 is 8.20. For the same compound, the Emax under setting [1] was found to be 98%.
In turn, `N#Cc1cc(F)cc(Cc2cc(-n3ncc4c3CCNC4=O)ccn2)c1` [Example 96, 3-fluoro-5-((4-(4-oxo-4,5,6,7-tetrahydro-1H-pyrazolo[4,3-c]pyridin-1-yl)pyridin-2-yl)methyl)benzonitrile] gave a pEC50 of 6.10. Under setting [1], the Emax was 94%.
`O=C1NCCCc2c1nnn2-c1ccnc(Cc2cc(F)cc(C(F)(F)F)c2)c1` [Example 97, 1-(2-(3-fluoro-5-(trifluoromethyl)benzyl)pyridin-4-yl)-5,6,7,8-tetrahydro-[1,2,3]triazolo[4,5-c]azepin-4(1H)-one] had a pEC50 of 5.60. The Emax under setting [1] was determined as 90%.
In the case of `O=C1NCCc2nn(-c3cc(Cc4cc(F)cc(C(F)(F)F)c4)ccn3)nc21` [Example 98, 2-(4-(3-fluoro-5-(trifluoromethyl)benzyl)pyridin-2-yl)-2,5,6,7-tetrahydro-4H-[1,2,3]triazolo[4,5-c]pyridin-4-one], the pEC50 was 6.80. Under setting [1], this compound yielded an Emax of 92%.
`O=C1NCCc2c1nnn2-c1cc(Cc2cc(F)cc(C(F)(F)F)c2)ccn1` [Example 99, 1-(4-(3-fluoro-5-(trifluoromethyl)benzyl)pyridin-2-yl)-1,5,6,7-tetrahydro-4H-[1,2,3]triazolo[4,5-c]pyridin-4-one] showed a pEC50 of 6.90. The maximal effect (Emax) under setting [1] is 95%.
Compound `O=C1NCCc2c1cnn2-c1cc(Cc2cc(F)cc(C(F)F)c2)ccn1` [Example 102, 1-(4-(3-(difluoromethyl)-5-fluorobenzyl)pyridin-2-yl)-1,5,6,7-tetrahydro-4H-pyrazolo[4,3-c]pyridin-4-one] showed a pEC50 of 8.00. Also, the maximum response (Emax) under setting [1] turned out to be 98%.
`O=C1NCCc2c1cnn2-c1cncc(Oc2cc(F)cc(C(F)(F)F)c2)c1` [Example 103, 1-(5-(3-fluoro-5-(trifluoromethyl)phenoxy)pyridin-3-yl)-1,5,6,7-tetrahydro-4H-pyrazolo[4,3-c]pyridin-4-one] gave a pEC50 of 6.00. The same compound registered an Emax under setting [1] of 68%.
The compound `COCCN1CCc2c(cnn2-c2ccnc(Cc3cc(F)cc(C(F)(F)F)c3)c2)C1=O` [Example 104, 1-(2-(3-fluoro-5-(trifluoromethyl)benzyl)pyridin-4-yl)-5-(2-methoxyethyl)-1,5,6,7-tetrahydro-4H-pyrazolo[4,3-c]pyridin-4-one] had a negative-log EC50 (pEC50) of 7.00. Under setting [1], the Emax came out at 94%.
On the same counts, the results for `O=C1c2cnn(-c3ccnc(Cc4cc(F)cc(C(F)(F)F)c4)c3)c2CCN1CCO` [Example 105, 1-(2-(3-fluoro-5-(trifluoromethyl)benzyl)pyridin-4-yl)-5-(2-hydroxyethyl)-1,5,6,7-tetrahydro-4H-pyrazolo[4,3-c]pyridin-4-one] are 7.20 and 97%.
